We go through four compounds from paper PMC3954793, “SHP-2 Binds to Caveolin-1 and Regulates Src Activity via Competitive Inhibition of CSK in Response to H2O2 in Astrocytes” (PLoS ONE, 2014).

For one experiment, the system named is ERK phosphorylation. Briefly: Immunoblot of p-ERK. The conditions noted are these: CRT-MG cells; PTPi IV 5 or 10 µM, 30 min; 5 mM H2O2, 10 min. It is filed as cell-based, human. The protocol:
(§1) Cells were plated and transfected with green fluorescence protein (GFP) siRNA (Samchully Pharm Co. Ltd., Seoul, Korea) as a control group and human CSK siRNA and human SHP-2 siRNA from Bioneer (Daejeon, Korea) using Lipofectamine RNAiMAX (Invitrogen, Carlsbad, CA, USA) according to the manufacturer’s instructions to achieve a final concentration of 300 nM.
(§2) Figure 7 SHP-2 and CSK reciprocally regulate H2O2-induced Src activation. […] Tubulin was evaluated as a loading control. Bottom panel, Densitometric quantification of p-Src Y419 levels (empty bars) and p-Src Y530 levels (filled bars), normalized to the level of total Src. Results are expressed as percentage of H2O2-treated values in control siRNA presented as mean ± SD. (*p<0.05 vs. H2O2-treated cells transfected with control siRNA; #p<0.05 between SHP-2 siRNA-transfected cells and CSK siRNA-transfected cells; n = 3). (B) Inhibition of SHP-2 by PTPi IV attenuated the H2O2-induced activation of the Src signaling pathway. CRT-MG cells were treated with 5 mM H2O2 or not for 10 min in the presence of 5 or 10 µM PTPi IV for 30 min, and lysed in cold-RIPA buffer. Antibodies against p-SHP-2, SHP-2, p-Src, Src, p-FAK, FAK, p-ERK, ERK, and tubulin were used for immunoblotting. Bottom panel, Densitometric quantification of p-Src Y419 levels (empty bars) and p-Src Y530 levels (filled bars), normalized to the level of total Src. […] (p, phospho).

Experiment [1] relates to Src (Tyr 419 phosphorylation). Briefly: Immunoblot of p-Src Y419. The experiment is classed as cell-based, human. Conditions: CRT-MG cells; PTPi IV 0–10 µM, 30 min; 5 mM H2O2, 10 min; n = 3. Here is the method: as §1, §2
Experiment [2] concerns Src (Tyr 530 phosphorylation). As to the kind of experiment: Immunoblot of p-Src Y530. The experiment is classed as cell-based, human. Conditions: CRT-MG cells; PTPi IV 0–10 µM, 30 min; 5 mM H2O2, 10 min; n = 3. Here is the method: as §1, §2
Experiment [3] deals with SHP-2 (Y542 and Y580 phosphorylation). As to the kind of experiment: Immunoblot of p-SHP-2 Y542 and Y580. The experiment is classed as cell-based, human. The conditions noted are these: CRT-MG cells; PTPi IV 5 or 10 µM, 30 min; 5 mM H2O2, 10 min. The protocol: as §2
The subject of a further experiment is FAK phosphorylation. Briefly: Immunoblot of p-FAK. It is filed as cell-based, human. The conditions noted are these: CRT-MG cells; PTPi IV 5 or 10 µM, 30 min; 5 mM H2O2, 10 min. Here is the method:
as §2

The target of a further experiment is T1, recombinant GST-SHP-2 (Homo sapiens, UniProt Q06124).
T1 construct: purchased Abnova (Taipei, Taiwan)
T1 sequence (Q06124 1-593): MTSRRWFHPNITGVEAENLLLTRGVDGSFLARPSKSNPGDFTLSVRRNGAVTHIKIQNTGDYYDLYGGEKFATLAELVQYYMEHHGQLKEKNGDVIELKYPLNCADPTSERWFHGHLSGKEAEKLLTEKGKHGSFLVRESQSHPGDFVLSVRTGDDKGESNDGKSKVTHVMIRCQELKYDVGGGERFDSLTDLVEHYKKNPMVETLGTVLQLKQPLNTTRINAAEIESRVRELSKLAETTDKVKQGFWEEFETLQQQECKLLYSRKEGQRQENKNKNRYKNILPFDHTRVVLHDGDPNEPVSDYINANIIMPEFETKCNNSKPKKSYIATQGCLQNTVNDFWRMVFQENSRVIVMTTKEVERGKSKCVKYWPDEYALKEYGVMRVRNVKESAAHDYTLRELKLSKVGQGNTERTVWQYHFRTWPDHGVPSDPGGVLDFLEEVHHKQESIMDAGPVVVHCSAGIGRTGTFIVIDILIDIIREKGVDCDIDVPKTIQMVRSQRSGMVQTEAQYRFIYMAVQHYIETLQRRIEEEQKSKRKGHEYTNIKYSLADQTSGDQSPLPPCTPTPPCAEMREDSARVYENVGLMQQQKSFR
Briefly: Surface plasmon resonance, rGST-SHP-2. The experiment is classed as binding. The protocol: (§3) SPR was performed on a SPRmicro system (K-MAC, Daejeon, Korea). A G1 chip (bare surface gold chip) was dipped into a 3 mM N-hydroxylsuccinimide self-assembled monolayer to form covalent bonds among protein amine groups. After washing with ethanol, the chip was purged with N2 gas. Recombinant GST-SHP-2 or GST-CSK was mixed with 20% ethylene glycol and then spotted onto the chip. Ligands were reacted on room temperature for 12 h to allow the ligands to become fixed onto the chip. After the reaction, the […] by washing with 1×Tris-buffered saline (TBS), and purged with N2 gas. SPR signal baselines were stabilized using 1×TBS running buffer, and different dilutions of caveolin-1 phosphopeptides (Cav-1 pY 14, GHL-pY-TVPIREQGN) in buffer were injected at a flow rate of 20 µL/min. Response unit (RU) alterations following sample reactions were analyzed by comparing affinities to the chip surface. Experiments were conducted by switching from samples immobilized on the chip (Cav-1 pY 14) to injected samples (rGST-CSK or rGST-SHP-2). […] Equilibrium binding curves and RU values are shown.
(§4) Figure 5 SPR and flow cytometric analyses of SHP-2 and CSK binding to phosphorylated-Tyr peptides of caveolin-1. […] After stringent wash, bound SHP-2 or CSK to caveolin-1 peptide conjugated beads were measured by Accuri C6 flow cytometer.

In another experiment the test system is recombinant GST-CSK. As to the kind of experiment: Surface plasmon resonance, rGST-CSK. The conditions noted are these: rGST-CSK immobilized on G1 chip; peptide 10 to 1,000 µg/mL injected, 20 µL/min, 1×TBS; repeated twice. The experiment is classed as binding. Here is the method: as §3, §4
Experiment [4] deals with CSK binding to p-caveolin-1 peptide. Briefly: Flow cytometric competitive binding assay (bound CSK on p-caveolin-1 peptide conjugated beads). Further details: species or system human. The conditions noted are these: 10 µg recombinant CSK with SHP-2 protein 1–100 µg; flow cytometry; repeated twice. Here is the method:
(§5) Human SHP-2 and CSK fusion constructs were produced by consecutively subcloning the protein coding regions of SHP-2 and CSK into the pGEX-6P-1 vector (GE healthcare, Piscataway, NJ, USA). Using these constructs, human SHP-2 and CSK were overexpressed in Escherichia coli (BL21) as soluble. Briefly, the transformed bacteria were grown in LB medium with 0.1 mg/ml ampicillin at 37°C to an A600 of 0.6, and then cultured for an additional overnight at 27°C after being induced with 0.5 mM IPTG (Duchefa Biochemie, Netherlands). The cells were harvested by centrifugation at 8000 g for 20 min, resuspended in PBS pH 7.4, and then disrupted by ultrasonication. The supernatant was purified with glutathione agarose 4B (Incospharm, Daejeon, South Korea) in PBS pH 7.4. The bound proteins were eluted with a linear gradient 10 mM glutathione in 50 mM Tris (pH 8.0). All proteins were concentrated with a Centricon apparatus (Miliipore, Darmstadt, Germany). Proteins were quantitated with the Bradford assay, then filtered and stored at −70°C until use. […]
Figure 6 Small interfering RNA targeting CSK facilitates H2O2-mediated binding between caveolin-1 and SHP-2. […] Fluorescent intensities were measured by Accuri C6 flow cytometer.

A further experiment deals with recombinant CSK protein. As to the kind of experiment: Bead-based flow cytometric binding assay, CSK. Further details: species or system human. Conditions: caveolin-1 (1–50 a.a.) peptide on carboxyl beads; CSK protein 1–10 µg, 1 h, RT; flow cytometry; repeated twice. The protocol:
as §5, §4

Experiment [5] concerns recombinant SHP-2 protein. As to the kind of experiment: Bead-based flow cytometric binding assay, SHP-2. Conditions: caveolin-1 (1–50 a.a.) peptide on carboxyl beads; SHP-2 protein 1–10 µg, 1 h, RT; flow cytometry; repeated twice. Set-up: species or system human. The protocol: as §5, §4

“Also recorded” adds a separate entry of the source. Ends that are not written are not given here.

As to `CC(C)(c1ccc(NS(=O)(=O)C(F)(F)F)cc1)c1ccc(C(C)(C)c2ccc(NS(=O)(=O)C(F)(F)F)cc2)cc1` [PTPi IV], the ERK phosphorylation result with ERK phosphorylation was “strongly inhibited; also recorded: reduced”. The “H2O2-mediated phosphorylation of Src at Tyr 419” value in experiment [1] is recorded as “dose-dependent decrease”. Moreover, in experiment [2], the “H2O2-mediated phosphorylation of Src at Tyr 530” value is listed as “no significant change”. Moreover, the “SHP-2 phosphorylation at Y542 and Y580” value in experiment [3] is on record as “significantly reduced”. Besides, the FAK phosphorylation entry in the experiment on FAK phosphorylation is listed as “strongly inhibited; also recorded: reduced”.
As for “GHL-pY-TVPIREQGN [Cav-1 pY 14, synthetic peptide phosphorylated at a Tyr residue corresponding to Tyr 14 of caveolin-1]”, at recombinant GST-SHP-2 (rGST-SHP-2 compared with rGST-CSK, immobilized on G1 chip, peptide 10 to 1,000 µg/mL), the “difference in kinetic rates or RUs, rGST-SHP-2 versus rGST-CSK” value is “no significant difference in their kinetic rates or RUs”. Besides, the SPR binding affinity entry on recombinant GST-SHP-2 (rGST-SHP-2 immobilized on G1 chip, peptide 10 to 1,000 µg/mL injected, 20 µL/min, 1×TBS, repeated twice) is “high affinity”; in the experiment with recombinant GST-CSK, “high affinity”.
For the compound “SHP-2 protein: human SHP-2 overexpressed in Escherichia coli (BL21) from pGEX-6P-1, glutathione agarose purified”, in experiment [4], the “amount of bound CSK on p-caveolin-1 peptide conjugated beads” value is given as “reduced by adding increasing concentrations of SHP-2 protein”.
Consider “p-caveolin-1 peptide: Fifty-amino acid-long synthetic peptides of caveolin-1 (1–50 a.a.) conjugated to carboxyl beads using EDC (MSGGKYVDSEGHLYTVPIREQGNIYKPNNKAMADELSEKQVYDAHTKEID; also: phosphorylated, sites not given here; UniProt Q03135 1-50, looked up, fragment)”, for which the “binding of CSK to peptide conjugated beads” value with recombinant CSK protein is reported as “significantly bound”. Also, in experiment [5], the “binding of SHP-2 to peptide conjugated beads” value was “significantly bound”.
